Legend:
CYP2C9 = CYP2C9 (Homo sapiens, UniProt P11712); assay: CYP inhibition assay; format: in vitro ADME; conditions: read-out: % Inhibition at 30 μM CYP 2C9
[1] = system: S-HeLa stably expressing a YFP-Parkin fusion protein; assay: Mitophagy cellular assay; format: cell-based; conditions: YFP-Parkin HeLa cells, compound with 6 μM CCCP, Tomm20 negative cells (FIG. 4)
Description: The mitophagy cellular assay was performed as follows:
S-HeLa stably expressing a YFP-Parkin fusion protein were utilised in high content screening assays to assess Parkin-dependent endpoints. 4000 cells were seeded in each well of a 96 well plate (Perkin Elmer ViewPlate-96 F TC, cat. N. 6005182) and left to grow for 24 hours. Cells were then incubated with vehicle (DMSO) or increasing concentrations of compound (1, 2.5, 5, 10 μM) for 1 hour prior to adding 6 μM carbonyl cyanide m-chlorophenyl hydrazone (CCCP), each condition run in replicate of three. After 20 hours, the cells were processed for immunofluorescence.
Samples were fixed in 4% PFA for 25 minutes RT and permeabilized with PBS 0.1% Triton-X100 for 3 minutes on ice, blocked with PBS 3% BSA, 0.3% Triton-X100 for 2 hours RT, followed by overnight incubation with primary antibody at 4° C. […] 18 images were acquired for each well using the following combination of excitation/emission filters: Hoechst33342 was excited through a 350/50 nm band pass filter and fluorescence intensity was collected through a 460/30 band pass filter. YFP was excited through a 500/20 nm band pass filter and fluorescence intensity was collected through a 540/35 band pass filter. DyLight 649 was excited through a 640/30 nm band pass filter and fluorescence intensity was collected through 700/75 band pass filter. […]

[2] = system: subcutaneous HCT-116 (colon cancer) xenograft; assay: In vivo cancer xenograft assay; conditions: 5 mg/kg daily IP, up to 26 days, HCT-116 xenograft in nude mice (FIG. 1)
Description: Each mouse was inoculated subcutaneously at the flank region with either HCT-116 cells (1.0×106) in 0.1 ml of 1×PBS mixed with Matrigel (1:1) for tumor development and xenotransplantation.
The vehicle with or without drug is administered to the mouse by intraperitoneal injection. The formulation with respective drug is as follows: • 10% —DMA: N,N-Dimethyl acetamide • 15% —Solutol HS 15: Macrogol 15 Hydroxy Stearate, Polyethylene glycol-15-hydroxystrerate; and 75%-20% aqueous HP-β-CD: Hydroxypropyl-beta-cyclodextrin
Before grouping and treatment, all animals were weighed and the tumor volumes were confirmed (approx. 120-150 mm^3) using electronic caliper. Since the tumor volume can affect the effectiveness of any given treatment, mice were assigned into groups using randomized block design as following: First, the experimental animals were divided into homogeneous blocks based on their tumor volume. […]
After tumor cells were inoculated, the animals were checked daily for morbidity and mortality. […] Death and observed clinical signs were recorded. Tumor volumes were measured every three days in two dimensions using an electronic caliper, and the volume data were expressed in mm^3 using the formula: V=0.5 a×b2 where a and b are the long and short diameters of the tumor, respectively. Tumor volume average is then recorded for each day for groups 1-4 until day 26.

Sequence of CYP2C9 (P11712 whole entry, the tested form may be a part): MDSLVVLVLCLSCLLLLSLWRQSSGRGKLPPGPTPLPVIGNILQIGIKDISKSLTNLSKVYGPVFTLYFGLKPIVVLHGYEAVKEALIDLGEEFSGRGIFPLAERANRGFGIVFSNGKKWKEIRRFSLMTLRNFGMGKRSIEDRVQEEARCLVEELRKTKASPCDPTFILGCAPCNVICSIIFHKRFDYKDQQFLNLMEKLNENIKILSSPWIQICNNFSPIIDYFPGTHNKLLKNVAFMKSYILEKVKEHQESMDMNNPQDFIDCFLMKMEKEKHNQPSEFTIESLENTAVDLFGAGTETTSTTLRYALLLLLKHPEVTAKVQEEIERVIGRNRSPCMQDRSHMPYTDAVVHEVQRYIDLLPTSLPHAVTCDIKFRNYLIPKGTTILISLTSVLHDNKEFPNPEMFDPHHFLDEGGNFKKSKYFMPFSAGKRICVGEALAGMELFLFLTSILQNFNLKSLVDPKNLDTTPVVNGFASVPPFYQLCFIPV

Cc1ccccc1C(=O)Nc1nc(NC(=O)c2ccccc2C)n(-c2ccc(OC(F)(F)F)cc2)n1 [Compound 42, N,N′-(1-(4-(trifluoromethoxy)phenyl)-1H-1,2,4-triazole-3,5-diyl)bis(2-methylbenzamide)]
inhibition at 30 μM (CYP2C9): 11.8% | mitophagy / removal of damaged mitochondria [1]: increases removal of damaged mictochondria | reduced tumor size [2]: greater than 50%

From US10889553B2, “Asymmetric triazole benzamide derivatives and the compositions and methods of treatment regarding the same” (NysnoBio Ireland DAC, priority 2017, dated 2021)
